Assay results from ChEMBL document CHEMBL3286253, “Design, synthesis, and structure-activity relationship studies of novel thioether pleuromutilin derivatives as potent antibacterial agents” (J Med Chem, 2014).
Values after ≈ are worked out from the molar mass of the structure shown.

What was measured:
Format in all cases: functional
Streptococcus pneumoniae = assay: Antibacterial activity against penicillin-resistant Streptococcus pneumoniae after 16 hrs by agar dilution method
[1] = tested on: Staphylococcus epidermidis; assay: Antibacterial activity against methicillin-sensitive Staphylococcus epidermidis after 16 hrs by agar dilution method
Staphylococcus aureus [2] = assay: Antibacterial activity against methicillin-resistant Staphylococcus aureus after 16 hrs by agar dilution method
Staphylococcus aureus [3] = assay: Antibacterial activity against Staphylococcus aureus […] after 16 hrs by agar dilution method
[4] = tested on: Staphylococcus epidermidis; assay: Antibacterial activity against methicillin-resistant Staphylococcus epidermidis after 16 hrs by agar dilution method
Staphylococcus aureus [5] = assay: Antibacterial activity against methicillin-sensitive Staphylococcus aureus after 16 hrs by agar dilution method

| SMILES | MIC (Streptococcus pneumoniae) [µg/mL] | MIC [1] [µg/mL] | MIC (Staphylococcus aureus [2]) [µg/mL] | MIC (Staphylococcus aureus [3]) [µg/mL] | MIC [4] [µg/mL] | MIC (Staphylococcus aureus [5]) [µg/mL] |
| --- | --- | --- | --- | --- | --- | --- |
| C=C[C@]1(C)C[C@@H](OC(=O)CSc2cncc(O)c2)[C@]2(C)[C@H](C)CC[C@]3(CCC(=O)[C@H]32)[C@@H](C)[C@@H]1O | 0.063 (≈ 0.129 µM) | 0.063 (≈ 0.129 µM) | 0.063 (≈ 0.129 µM) | 0.125 (≈ 0.256 µM) | 0.063 (≈ 0.129 µM) | 0.063 (≈ 0.129 µM) |
| C=C[C@]1(C)C[C@@H](OC(=O)CSc2ccc(N)nc2)[C@]2(C)[C@H](C)CC[C@]3(CCC(=O)[C@H]32)[C@@H](C)[C@@H]1O | 0.063 (≈ 0.129 µM) | 0.5 (≈ 1.03 µM) | 0.063 (≈ 0.129 µM) | 0.125 (≈ 0.257 µM) | 0.063 (≈ 0.129 µM) | 0.125 (≈ 0.257 µM) |
| C=C[C@]1(C)C[C@@H](OC(=O)CSc2cncc(/C=N/O)c2)[C@]2(C)[C@H](C)CC[C@]3(CCC(=O)[C@H]32)[C@@H](C)[C@@H]1O | 0.063 (≈ 0.122 µM) | 0.063 (≈ 0.122 µM) | 0.063 (≈ 0.122 µM) | 0.063 (≈ 0.122 µM) | 0.063 (≈ 0.122 µM) | 0.063 (≈ 0.122 µM) |
| C=C[C@]1(C)C[C@@H](OC(=O)CSc2cncc(/C=N/N)c2)[C@]2(C)[C@H](C)CC[C@]3(CCC(=O)[C@H]32)[C@@H](C)[C@@H]1O | 0.25 (≈ 0.487 µM) | 0.25 (≈ 0.487 µM) | 0.25 (≈ 0.487 µM) | 0.25 (≈ 0.487 µM) | 0.25 (≈ 0.487 µM) | 0.25 (≈ 0.487 µM) |
| C=C[C@]1(C)C[C@@H](OC(=O)CSc2cncc(/C=N/OC)c2)[C@]2(C)[C@H](C)CC[C@]3(CCC(=O)[C@H]32)[C@@H](C)[C@@H]1O | 0.5 (≈ 0.946 µM) | 0.25 (≈ 0.473 µM) | 0.25 (≈ 0.473 µM) | 0.125 (≈ 0.236 µM) | 0.25 (≈ 0.473 µM) | 0.125 (≈ 0.236 µM) |
| C=C[C@]1(C)C[C@@H](OC(=O)CSc2cncc(/C=N/OCC)c2)[C@]2(C)[C@H](C)CC[C@]3(CCC(=O)[C@H]32)[C@@H](C)[C@@H]1O | 1 (≈ 1.84 µM) | 1 (≈ 1.84 µM) | 1 (≈ 1.84 µM) | 1 (≈ 1.84 µM) | 1 (≈ 1.84 µM) | 1 (≈ 1.84 µM) |
| C=C[C@]1(C)C[C@@H](OC(=O)CSc2ccc([N+](=O)[O-])cn2)[C@]2(C)[C@H](C)CC[C@]3(CCC(=O)[C@H]32)[C@@H](C)[C@@H]1O | 0.5 (≈ 0.968 µM) | 0.25 (≈ 0.484 µM) | 0.5 (≈ 0.968 µM) | 1 (≈ 1.94 µM) | 0.25 (≈ 0.484 µM) | 0.25 (≈ 0.484 µM) |
| C=C[C@]1(C)C[C@@H](OC(=O)CSc2ncccc2[N+](=O)[O-])[C@]2(C)[C@H](C)CC[C@]3(CCC(=O)[C@H]32)[C@@H](C)[C@@H]1O | 0.125 (≈ 0.242 µM) | 0.125 (≈ 0.242 µM) | 0.063 (≈ 0.122 µM) | 0.125 (≈ 0.242 µM) | 0.063 (≈ 0.122 µM) | 0.125 (≈ 0.242 µM) |
| C=C[C@]1(C)C[C@@H](OC(=O)CSc2cc(CO)ccn2)[C@]2(C)[C@H](C)CC[C@]3(CCC(=O)[C@H]32)[C@@H](C)[C@@H]1O | 0.125 (≈ 0.249 µM) | 0.125 (≈ 0.249 µM) | 0.125 (≈ 0.249 µM) | 0.125 (≈ 0.249 µM) | 0.125 (≈ 0.249 µM) | 0.125 (≈ 0.249 µM) |
| C=C[C@]1(C)C[C@@H](OC(=O)CSc2ncccc2CO)[C@]2(C)[C@H](C)CC[C@]3(CCC(=O)[C@H]32)[C@@H](C)[C@@H]1O | 0.125 (≈ 0.249 µM) | 0.063 (≈ 0.126 µM) | 0.125 (≈ 0.249 µM) | 0.125 (≈ 0.249 µM) | 0.125 (≈ 0.249 µM) | 0.125 (≈ 0.249 µM) |
| C=C[C@]1(C)C[C@@H](OC(=O)CSc2ncccc2C#N)[C@]2(C)[C@H](C)CC[C@]3(CCC(=O)[C@H]32)[C@@H](C)[C@@H]1O | 0.5 (≈ 1.01 µM) | 0.5 (≈ 1.01 µM) | 0.5 (≈ 1.01 µM) | 1 (≈ 2.01 µM) | 0.5 (≈ 1.01 µM) | 0.5 (≈ 1.01 µM) |
| C=C[C@]1(C)C[C@@H](OC(=O)CSc2cc(C#N)ccn2)[C@]2(C)[C@H](C)CC[C@]3(CCC(=O)[C@H]32)[C@@H](C)[C@@H]1O | 0.063 (≈ 0.127 µM) | 0.063 (≈ 0.127 µM) | 0.063 (≈ 0.127 µM) | 0.125 (≈ 0.252 µM) | 0.063 (≈ 0.127 µM) | 0.063 (≈ 0.127 µM) |
| C=C[C@]1(C)C[C@@H](OC(=O)CSc2ccc(N)cn2)[C@]2(C)[C@H](C)CC[C@]3(CCC(=O)[C@H]32)[C@@H](C)[C@@H]1O | 0.063 (≈ 0.129 µM) | 0.063 (≈ 0.129 µM) | 0.063 (≈ 0.129 µM) | 0.125 (≈ 0.257 µM) | 0.063 (≈ 0.129 µM) | 0.063 (≈ 0.129 µM) |
| C=C[C@]1(C)C[C@@H](OC(=O)CSc2ncccc2N)[C@]2(C)[C@H](C)CC[C@]3(CCC(=O)[C@H]32)[C@@H](C)[C@@H]1O | 0.25 (≈ 0.514 µM) | 0.125 (≈ 0.257 µM) | 0.25 (≈ 0.514 µM) | 0.5 (≈ 1.03 µM) | 0.125 (≈ 0.257 µM) | 0.25 (≈ 0.514 µM) |
| C=C[C@]1(C)C[C@@H](OC(=O)CSc2cc(/C=N/O)ccn2)[C@]2(C)[C@H](C)CC[C@]3(CCC(=O)[C@H]32)[C@@H](C)[C@@H]1O | 0.25 (≈ 0.486 µM) | 0.063 (≈ 0.122 µM) | 0.125 (≈ 0.243 µM) | 0.125 (≈ 0.243 µM) | 0.125 (≈ 0.243 µM) | 0.063 (≈ 0.122 µM) |
| C=C[C@]1(C)C[C@@H](OC(=O)CSc2cc(/C=N/N)ccn2)[C@]2(C)[C@H](C)CC[C@]3(CCC(=O)[C@H]32)[C@@H](C)[C@@H]1O | 0.5 (≈ 0.973 µM) | 0.5 (≈ 0.973 µM) | 0.5 (≈ 0.973 µM) | 0.5 (≈ 0.973 µM) | 0.5 (≈ 0.973 µM) | 0.5 (≈ 0.973 µM) |
| C=C[C@]1(C)C[C@@H](OC(=O)CSc2ccncc2N)[C@]2(C)[C@H](C)CC[C@]3(CCC(=O)[C@H]32)[C@@H](C)[C@@H]1O | 0.125 (≈ 0.257 µM) | 0.063 (≈ 0.129 µM) | 0.063 (≈ 0.129 µM) | 0.125 (≈ 0.257 µM) | 0.063 (≈ 0.129 µM) | 0.063 (≈ 0.129 µM) |
| C=C[C@]1(C)C[C@@H](OC(=O)CSc2ccnc(N)c2)[C@]2(C)[C@H](C)CC[C@]3(CCC(=O)[C@H]32)[C@@H](C)[C@@H]1O | 0.063 (≈ 0.129 µM) | 0.063 (≈ 0.129 µM) | 0.063 (≈ 0.129 µM) | 0.063 (≈ 0.129 µM) | 0.063 (≈ 0.129 µM) | 0.063 (≈ 0.129 µM) |
| C=C[C@]1(C)C[C@@H](OC(=O)CSc2ccncc2CO)[C@]2(C)[C@H](C)CC[C@]3(CCC(=O)[C@H]32)[C@@H](C)[C@@H]1O | 0.125 (≈ 0.249 µM) | 0.063 (≈ 0.126 µM) | 0.063 (≈ 0.126 µM) | 0.063 (≈ 0.126 µM) | 0.063 (≈ 0.126 µM) | 0.063 (≈ 0.126 µM) |
| C=C[C@]1(C)C[C@@H](OC(=O)CSc2ccnc(CO)c2)[C@]2(C)[C@H](C)CC[C@]3(CCC(=O)[C@H]32)[C@@H](C)[C@@H]1O | 0.063 (≈ 0.126 µM) | 0.031 (≈ 0.0618 µM) | 0.031 (≈ 0.0618 µM) | 0.063 (≈ 0.126 µM) | 0.031 (≈ 0.0618 µM) | 0.063 (≈ 0.126 µM) |
| C=C[C@]1(C)C[C@@H](OC(=O)CSc2cncc(NC(=O)[C@H](C)N)c2)[C@]2(C)[C@H](C)CC[C@]3(CCC(=O)[C@H]32)[C@@H](C)[C@@H]1O | 0.125 (≈ 0.224 µM) | 0.125 (≈ 0.224 µM) | 0.125 (≈ 0.224 µM) | 0.125 (≈ 0.224 µM) | 0.125 (≈ 0.224 µM) | 0.125 (≈ 0.224 µM) |
| C=C[C@]1(C)C[C@@H](OC(=O)CSc2cncc(NC(=O)[C@@H](N)C(C)C)c2)[C@]2(C)[C@H](C)CC[C@]3(CCC(=O)[C@H]32)[C@@H](C)[C@@H]1O | 0.125 (≈ 0.213 µM) | 0.125 (≈ 0.213 µM) | 0.125 (≈ 0.213 µM) | 0.25 (≈ 0.427 µM) | 0.125 (≈ 0.213 µM) | 0.125 (≈ 0.213 µM) |
| C=C[C@]1(C)C[C@@H](OC(=O)CSc2cncc(NC(=O)[C@@H](N)[C@@H](C)CC)c2)[C@]2(C)[C@H](C)CC[C@]3(CCC(=O)[C@H]32)[C@@H](C)[C@@H]1O | 0.25 (≈ 0.417 µM) | 0.25 (≈ 0.417 µM) | 0.25 (≈ 0.417 µM) | 0.25 (≈ 0.417 µM) | 0.25 (≈ 0.417 µM) | 0.25 (≈ 0.417 µM) |
| C=C[C@]1(C)C[C@@H](OC(=O)CSc2cncc(NC(=O)[C@H]3CCCCN3)c2)[C@]2(C)[C@H](C)CC[C@]3(CCC(=O)[C@H]32)[C@@H](C)[C@@H]1O | 0.125 (≈ 0.209 µM) | 0.031 (≈ 0.0519 µM) | 0.125 (≈ 0.209 µM) | 0.125 (≈ 0.209 µM) | 0.125 (≈ 0.209 µM) | 0.063 (≈ 0.105 µM) |
| C=C[C@]1(C)C[C@@H](OC(=O)CSc2cncc(NC(=O)[C@@H]3CCCN3)c2)[C@]2(C)[C@H](C)CC[C@]3(CCC(=O)[C@H]32)[C@@H](C)[C@@H]1O | 0.031 (≈ 0.0531 µM) | 0.063 (≈ 0.108 µM) | 0.125 (≈ 0.214 µM) | 0.125 (≈ 0.214 µM) | 0.125 (≈ 0.214 µM) | 0.031 (≈ 0.0531 µM) |
| C=C[C@]1(C)C[C@@H](OC(=O)CSc2cncc(NC(=O)CN(C)C)c2)[C@]2(C)[C@H](C)CC[C@]3(CCC(=O)[C@H]32)[C@@H](C)[C@@H]1O | 0.125 (≈ 0.219 µM) | 0.125 (≈ 0.219 µM) | 0.125 (≈ 0.219 µM) | 0.5 (≈ 0.874 µM) | 0.125 (≈ 0.219 µM) | 0.5 (≈ 0.874 µM) |
